These results are taken from patent US12613237B2, “Biosensors for detecting arrestin signaling” (MONTANA MOLECULAR, LLC, priority 2018, dated 2026).

SMILES strings stand for the structures.

This test deals with vasopressin receptor. The format is cell-based. The settings on record: HEK293T cells (FIG. 8), compared to vasopressin.

For `CC[C@H](C)[C@@H]1NC(=O)[C@H](Cc2ccc(O)cc2)NC(=O)[C@@H](N)CSSC[C@@H](C(=O)N2CCC[C@H]2C(=O)N[C@@H](CC(C)C)C(=O)NCC(N)=O)NC(=O)[C@H](CC(N)=O)NC(=O)[C@H](CCC(N)=O)NC1=O` [oxytocin], the “beta arrestin signaling (green fluorescence), speed” value was “significantly slower”.
